Measurements published in US10233209B2, “Inhibitors of the farnesoid x receptor and uses in medicine” (The United States of America, as represented by the …, priority 2013, dated 2019).

Assays:
Format in all cases: in vivo, mouse
[1] = system: HFD-induced NAFLD model; assay: HFD-induced NAFLD model: liver histology, liver weight, triglycerides (tempol, antibiotic)
Description: High-fat diet (HFD) (60% kcal consisting of fat) was purchased from Bioserv. […] Fxr^fl/fl and Fxr^ΔIE (Kim et al., J. Lipid Res. 48:2664-2672, 2007) mice were backcrossed with C57BL/6N mice for over 10 generations. For the antibiotic (the combination of bacitracin, neomycin, and streptomycin) study, male C57BL/6N mice from 6 weeks of age were fed a high-fat diet (“HFD) and administered 0.1% (w/v) of each compound (the combination of bacitracin, neomycin, and streptomycin) in the drinking water. […] For TβMCA in vivo, male C57BL/6N mice from 6 weeks of age were fed a HFD and treated with the antibiotics (0.1% of each compound of bacitracin, neomycin, and streptomycin combination) for 3 days. Vehicle (saline), TCA (400 mg/kg body weight, dissolved in saline) or a combination of TCA and TβMCA (400 mg/kg body weight of each compound, dissolved in saline) were orally administered to the mice and followed by a second dose 12 h later. The mice were killed 2 h later for tissue collection. For the Gly-MCA study, Gly-MCA was custom synthesized. Bacon-flavored dough pills were produced as described (Walker et al., Toxicol. Appl. Pharmacol. 260:65-69, 2012) for oral administration of Gly-MCA (0.25 mg Gly-MCA/pill, dose of 10 mg/kg). Mice were trained to eat the dough pills prior to the study. For the prevention of obesity, insulin resistance and NAFLD, male wild-type (WT) C57BL/6N mice, 6- to 8-weeks-old, were fed a high-fat diet (Bio-Serv, Frenchtown, N.J.; 60 kcal % fat) from the age of 6 weeks and were orally administered with vehicle (control pills) or Gly-MCA (0.25 mg/pill/day, dose 10 mg/kg). C57BL/6N mice fed a high-fat diet for 12 weeks were administered (0.25 mg Gly-MCA/pill, dose of 5 mg/kg). Leptin-deficient db/db mice, 6- to 8-weeks-old, fed a chow diet, were administered Gly-MCA (0.25 mg/pill/day, 10 mg/kg). Mice were housed individually in their home cages. Cumulative food intake and TEEbal were measured for 1 week in vehicle and Gly-MCA-treated mice from 6 to 7 weeks of HFD. TEEbal was measured as previously described (Ravussin et al., Int. J. Obesity 37:399-403, 2013).
Hematoxylin and eosin (H&E) staining were performed on formalin fixed paraffin embedded sections using a standard protocol. Oil red 0 staining was performed on frozen liver sections using a standard protocol. At least three discontinuous liver sections were evaluated for each mouse.
Hepatic lipids were extracted using a 2:1 chloroform-methanol solution. Liver triglycerides were measured with a triglyceride colorimetric assay kit, according to the manufacturer's recommendation (Bioassay Systems, Hayward, Calif.).

[2] = system: high-fat diet-treated Fxr^fl/fl and Fxr^ΔIE mice; assay: body mass gain of tempol-treated mice on a high-fat diet; conditions: high-fat diet 10 weeks
Description: High-fat diet (HFD) (60% kcal consisting of fat) was purchased from Bioserv. […] Fxr^fl/fl and Fxr^ΔIE (Kim et al., J. Lipid Res. 48:2664-2672, 2007) mice were backcrossed with C57BL/6N mice for over 10 generations. For the antibiotic (the combination of bacitracin, neomycin, and streptomycin) study, male C57BL/6N mice from 6 weeks of age were fed a high-fat diet (“HFD) and administered 0.1% (w/v) of each compound (the combination of bacitracin, neomycin, and streptomycin) in the drinking water. […] For TβMCA in vivo, male C57BL/6N mice from 6 weeks of age were fed a HFD and treated with the antibiotics (0.1% of each compound of bacitracin, neomycin, and streptomycin combination) for 3 days. Vehicle (saline), TCA (400 mg/kg body weight, dissolved in saline) or a combination of TCA and TβMCA (400 mg/kg body weight of each compound, dissolved in saline) were orally administered to the mice and followed by a second dose 12 h later. The mice were killed 2 h later for tissue collection. For the Gly-MCA study, Gly-MCA was custom synthesized. […] Cumulative food intake and TEEbal were measured for 1 week in vehicle and Gly-MCA-treated mice from 6 to 7 weeks of HFD. TEEbal was measured as previously described (Ravussin et al., Int. J. Obesity 37:399-403, 2013). […]

[3] = system: SREBP1c-CIDEA pathway; assay: liver mRNA and protein expression (qPCR, western blot); conditions: for protein levels of mature nuclear SREBP1 and CIDEA in the liver: HFD 16 weeks
Description: The mucosa of intestine was gently scraped and liver was taken and both were flash frozen in liquid nitrogen and stored at −80° C. until RNA was prepared. RNA was extracted from frozen intestine and liver using TRIzol reagent (Invitrogen, Carlsbad, Calif.). cDNA was synthesized from 1 μg total RNA using Superscript II reverse transcriptase (Invitrogen, Carlsbad, Calif.). qPCR primers were designed with qPrimerDepot. Measured mRNA levels were normalized to those of 18S ribosomal RNA and expressed as fold change relative to those of control group.
Liver whole-cell or nuclear extracts were prepared. Membranes were incubated with antibodies against FXR (Santa Cruz Biotechnology, Inc., Santa Cruz, Calif.), SREBP1 (BD Biosciences, San Jose, Calif.), and CIDEA (Abcam, Cambridge, Mass.). The signals obtained were normalized to β-ACTIN (Abcam) for whole cell extract and LAMIN A/C (Santa Cruz) for nuclear extracts.

[4] = system: bile salt hydrolase (BSH); assay: fecal bile salt hydrolase activity; conditions: tempol vs vehicle
Description: Fecal proteins were prepared from feces samples (0.5 g) in pH 7.4 phosphate buffered saline (PBS, 5.0 mL) using sonication. […] Briefly, incubation was carried out in 3 mM sodium acetate buffer, pH 5.2, containing 0.1 mg/ml fecal protein and 50 μM TCDCA-d5 in a final volume of 200 μL. After a 20 min incubation at 37° C., the reaction was stopped by plunging the samples into dry ice. 100 μL of acetonitrile was directly added to the reaction mix. After centrifuging at 14,000×g for 20 min, 5 μL of the supernatant was transferred to an auto sampler vial subjected to analysis by a UPLC system coupled with a XEVO triple quadrupole tandem mass spectrometer (Waters Corp., Milford, Mass.).

## CC1(C)CC(O)CC(C)(C)N1[O] [tempol, 4-hydroxy-2,2,6,6,-tetramethylpiperidine-1-oxyl]
[1]; Fxr^fl/fl mice, HFD
  liver weights: significantly reduced
[1]; Fxr^fl/fl mice, HFD 14 weeks (antibiotic) and 16 weeks (tempol)
  hepatic lipid droplets (liver histology): decreased hepatic lipid droplets
[1]; Fxr^ΔIE mice, HFD
  hepatic lipid (liver histology): no changes in hepatic lipid
  hepatic triglyceride content (hepatic steatosis): did not alleviate hepatic steatosis
[1]; HFD
  liver weights: decreased
[1]; HFD, relative to vehicle
  hepatic triglyceride (TG) contents decreased to: ~35%
[1]; tempol: HFD 16 weeks, antibiotic: HFD 7 weeks
  hepatic lipid droplets (liver histology): significant reduction in hepatic lipid droplets
[2]; Fxr^fl/fl mice
  weight gain less than that of vehicle treated mice: approximately 65%
[2]; Fxr^ΔIE mice
  weight gain vs vehicle: insignificant difference in weight gain
[3]; Fxr^ΔIE mice treated with tempol
  protein levels of mature nuclear SREBP1 and CIDEA in the liver: no decrease
[3]; HFD 7 weeks
  inflammation-related genes (Tlr2, Tlr4, Tlr9, Tnfα) mRNA in liver: comparable
[3]; tempol-treated Fxr^fl/fl mice
  protein levels of mature nuclear SREBP1 and CIDEA in the liver: significantly reduced
[4]
  bile salt hydrolase (BSH) enzymatic activity in the feces: significant downregulation
